{"source": "patent US20170105647A1", "about": "“SYSTEMS AND METHODS FOR IDENTIFYING NEUROBIOLOGICAL BIOMARKERS USING EEG” (Children's Medical Center Corporation, priority 2014, published 2017)", "type_in_all_cases": "in vivo, human", "key": {"[1]": {"test_system": "children with regressive autism (R-ASD), STAR group", "test": "4 Hz frequency modulated auditory evoked response (FMAER), before vs after steroid treatment", "conditions": "for Mean Diff. (mean of pre to post difference of 4 Hz FMAER spectral power): STAR group n = 20, oral 2 mg/kg/day", "excerpt": "In this example, subjects with regressive autism were utilized to determine whether application of a corticosteroid would improve language function and show an improved 4 Hz FMAER. […] A pharmacologically untreated clinical convenience sample of children with ASD served as controls.\nSteroid Treated Autism with Regression (STAR): The target group of study subjects was limited to children aged 3-5 years old, diagnosed as having autism with a historically documented period of regression at onset. Regression was defined as the loss of age appropriate language, communication, cognitive ability, and behavior determined by the referring physician and confirmed by the treating neurologist. Patients with a slowly developing plateau or a very slow regression over a prolonged period of time, as opposed to an abrupt regression, were not included in the STAR group.\nSteroid Treatment STAR Patients: Oral prednisolone (Prelone™ or Orapred™) was administered by the parents on a daily basis at 2 mg/kg/day. Dosage was occasionally down-adjusted on the basis of minor complications.\nAll subjects' electrophysiological data utilized in this study were gathered from 30 scalp channels via gold cup electrodes applied with collodion after careful measurement. A 31st channel carried the FMAER trial marker. A 32nd channel carried eye movement and blink artifact information. Data were digitized at 256 Hz after amplification by a Cardionics™ 32 channel EEG amplifier (Cardionics Inc. 910 Baystar Blvd, Webster, Tex. 77598 USA) set to 1-100 Hz pass band. The 30 EEG scalp channels used included the following: FP1, FP2, F7, F3, FZ, F4, F8, FC5, FC1, FC2, FC6, T7, C3, CZ, C4, T8, CP5, CP1, CP2, CP6, P7, P3, PZ, P4, P8, O1, OZ, O2, TP9, and TP10 [28]. Data for the FMAER were gathered over 5-20 minutes with additional time allowed for rest breaks as indicated. The patient and a parent, when behaviorally indicated, were together within view of the technologist through a one-way mirror window in a sound-shielded room, adjacent to the recording equipment. Off-line, the EEG data and accompanying trial markers were visually evaluated and epochs containing excessive eye-blink, muscle and movement artifact were marked for removal from subsequent analysis. All 30 channel data were visually inspected for EEG abnormalities and for creating the common average reference. For the current study, FMAER analysis was restricted to 14 active scalp electrodes: F7, F8, T7, T8, P7, P8, TP9, TP10, F3, F4, C3, C4, P3, and P4.\nFrequency Modulated Auditory Evoked Response (FMAER): Language comprehension requires decoding of rapidly changing speech streams; detection of FM within speech has been hypothesized as essential for accurate phoneme detection and word comprehension. The FMAER was developed as a steady-state EP to assess the brain's response to rapid changes in the frequency modulation (FM) of an applied auditory stimulus in extension of and based upon the pioneering work of Green, Stefanatos and others. […] Midline frontal electrodes (FZ, FC1, FC2) usually manifest bilateral overlapping source dipole projection. […] The FMAER may be normal, or as in pathology, of low amplitude, distorted, or absent. In rare cases of pathology the FMAER source location may be outside the usual STG location and/or the source dipole may point in unexpected directions..\nAs previously detailed, the FMAER was formed from a carrier sine wave at 1000 Hz frequency modulated by a slower 10 Hz sine wave causing the frequency of the carrier wave to shift (“deviate”) between […] at the 10 Hz rate, producing a warbling tone. The 10 Hz sine wave was then amplitude modulated by a slower 4 Hz sine wave such that the warbling (FM modulation) was sinusoidally turned on and off (AM modulated) at the 4 Hz rate. This process caused the 10 Hz “warbling” of the 1000 Hz sine wave carrier to be sinusoidally turned fully on and off (100% modulation) at 4 Hz. […]"}, "[2]": {"test_system": "children with regressive autism (R-ASD), STAR group", "test": "Subjective evaluation of EEG abnormality, change from first to second study", "excerpt": "Subjective Evaluation of EEG Abnormality: All first and second EEG studies were visually reassessed by a pediatric electroencephalographer blinded to subject history and group identity. All EEGs were reviewed in randomly selected order with respect to group and study order. Each EEG was scored as showing in ascending order of abnormality (if present): paroxysmal sharp theta, sharp waves, and spike or spike wave discharges. After this “blinded” estimation was completed, EEG results were sorted into first and second EEG study order, without group identity; subsequently the electroencephalographer compared each subject's two sequential EEGs and classified their scores as showing “worsening”, “no change”, or “improvement” between the first and second study."}, "[3]": {"test_system": "children with regressive autism (R-ASD), STAR group", "test": "DSM-IV criteria for Autistic Disorder, scaled behavioral score", "excerpt": "Behavioral Assessment: The DSM-IV criteria for Autistic Disorder (299.0), aside from employment for diagnosis, were scaled in terms of severity for each STAR group child and the sum of the scaled scores was assigned as behavioral score. The direction of scaling was defined such that the higher the score was, the more severe the behavioral manifestations of ASD were. The symptom items and scaling are described in Table 2. […] Summed scaled item scores were assigned in order to quantify behavioral change in analogy to language change. For the current study scores were selected for the office visit nearest to the first and the second EEG/FMAER studies respectively. Scorers had no knowledge of the current study's goals or design, the future group status of subjects, or the subjects' FMAER results. The NSA group subjects lacked the DSM-IV based behavior scores."}, "[4]": {"test_system": "children with regressive autism (R-ASD), STAR group", "test": "Clinical Language Status Questionnaire (CLSQ) language assessment", "excerpt": "Language Assessment, STAR Group: STAR group subjects were followed by their child neurologists using a clinical language assessment, referred to as the “Clinical Language Status Questionnaire (CLSQ)” which was developed in-house well prior to the current study. It is as yet unpublished. The assessment was designed to assist pediatric neurologists involved in the pharmacological treatment of neurological disorders, in estimating language progress or lack thereof—from a child's parent(s)' report and the clinician's direct assessment at the time of a clinical visit. It involves evaluation of both the child's current best expressive and receptive language performance. In the current study, documentation of lack of response improvement or plateau, along with assessment of medical complication(s), constituted the primary evidence used for treatment discontinuation. […] The term “Appears normal” (Table 1) was defined as the clinician's and family's report of normal, age-appropriate speech. None of the children in this study received this score. “Appears nearly normal” was defined as context and age appropriate speech with evidence of mispronunciations, poor or odd word choice, unusual fluency or unusually sparseness, unusual grammatical errors such as errors in tense, pronoun gender match and/or pluralization, and/or requirement of adult speech simplification in order to assure comprehension relative to age expectancy. The difference between “short meaningful 1-2 word phrases” and “meaningful 3+ word phrases” is self-explanatory. Although many well developed language tests exist, as documented by the American Speech-Language-Hearing Association (www.asha.org/assessments.aspx), most tend to be detailed yet too coarsely grained to capture this population's limited language range. They are also typically too time-consuming for repeated administration by neurologists during recurring, clinical check-in visits. In contrast, the CLSQ may be completed in less than ten minutes. An additional advantage of the CLSQ for the current study was its comprehensiveness in capturing the full—while limited—range of language change observed in this patient population. Parents are shown short phrases (without the numerical scores) and asked to identify their child's current relevant expressive and receptive status. The neurologist stands by to clarify, assist, and help resolve two caregivers' divergent opinions. Neurologists using the CLSQ are sensitive to the language performance definitions in question. The study subjects' CLSQ score assignments occurred without prior knowledge of the current study."}, "[5]": {"conditions": "STAR group n = 20, blinded visual EEG rating"}, "[6]": {"conditions": "STAR group n = 20, pre- to post-treatment, CLSQ scale 0-10"}}, "note": "Several values for one entry are separate records, joined by “and”; a condition that tells them apart may be missing. Equal values may be shown once."}
{"smiles": "C[C@]12C=CC(=O)C=C1CC[C@@H]1[C@@H]2[C@@H](O)C[C@@]2(C)[C@H]1CC[C@]2(O)C(=O)CO", "note": "[prednisolone]", "values": [{"measurement": "Electrode measurements of the FMAER 4 Hz response with significant change before vs after steroid therapy", "setting": "[1]; STAR group, matched-paired t-test, 14 electrodes", "result": "nine of 14 and 9 of 14"}, {"measurement": "FMAER response distortion (spectral spread) after steroid treatment", "setting": "[1]; all STAR subjects, FFT of FMAER", "result": "reduction of distortion"}, {"measurement": "Mean Diff. (mean of pre to post difference of 4 Hz FMAER spectral power)", "setting": "[1]; electrode C3", "result": 24.15, "unit": "μV^2/Hz"}, {"measurement": "Mean Diff. (mean of pre to post difference of 4 Hz FMAER spectral power)", "setting": "[1]; electrode C4", "result": 22.66, "unit": "μV^2/Hz"}, {"measurement": "Mean Diff. (mean of pre to post difference of 4 Hz FMAER spectral power)", "setting": "[1]; electrode F3, mean 9.125 months", "result": 47.18, "unit": "μV^2/Hz"}, {"measurement": "Mean Diff. (mean of pre to post difference of 4 Hz FMAER spectral power)", "setting": "[1]; electrode F4", "result": 64.31, "unit": "μV^2/Hz"}, {"measurement": "Mean Diff. (mean of pre to post difference of 4 Hz FMAER spectral power)", "setting": "[1]; electrode F7", "result": 3.38, "unit": "μV^2/Hz"}, {"measurement": "Mean Diff. (mean of pre to post difference of 4 Hz FMAER spectral power)", "setting": "[1]; electrode F8", "result": 18.47, "unit": "μV^2/Hz"}, {"measurement": "Mean Diff. (mean of pre to post difference of 4 Hz FMAER spectral power)", "setting": "[1]; electrode P3", "result": 10.49, "unit": "μV^2/Hz"}, {"measurement": "Mean Diff. (mean of pre to post difference of 4 Hz FMAER spectral power)", "setting": "[1]; electrode P4", "result": 10.52, "unit": "μV^2/Hz"}, {"measurement": "Mean Diff. (mean of pre to post difference of 4 Hz FMAER spectral power)", "setting": "[1]; electrode P7", "result": 65.08, "unit": "μV^2/Hz"}, {"measurement": "Mean Diff. (mean of pre to post difference of 4 Hz FMAER spectral power)", "setting": "[1]; electrode P8", "result": 77.83, "unit": "μV^2/Hz"}, {"measurement": "Mean Diff. (mean of pre to post difference of 4 Hz FMAER spectral power)", "setting": "[1]; electrode T7", "result": 15.49, "unit": "μV^2/Hz"}, {"measurement": "Mean Diff. (mean of pre to post difference of 4 Hz FMAER spectral power)", "setting": "[1]; electrode T8", "result": 30.60, "unit": "μV^2/Hz"}, {"measurement": "Mean Diff. (mean of pre to post difference of 4 Hz FMAER spectral power)", "setting": "[1]; electrode TP9", "result": 56.91, "unit": "μV^2/Hz"}, {"measurement": "Mean Diff. (mean of pre to post difference of 4 Hz FMAER spectral power)", "setting": "[1]; electrode TP10", "result": 83.49, "unit": "μV^2/Hz"}, {"measurement": "EEG change Time 1 to Time 2: number of subjects Improved", "setting": "[2]; [5]", "result": 3}, {"measurement": "EEG change Time 1 to Time 2: number of subjects No Change", "setting": "[2]; [5]", "result": 10}, {"measurement": "EEG change Time 1 to Time 2: number of subjects Worse", "setting": "[2]; [5]", "result": 7}, {"measurement": "Steroid effect on EEG abnormalities by visual inspection", "setting": "[2]; STAR vs NSA, Fisher's exact test n.s.", "result": "little evidence for a physiologically meaningful steroid effect on EEG"}, {"measurement": "Average DSM-IV Score (mean of 14 scored items, 0-3 each)", "setting": "[3]; After treatment", "result": 0.9857}, {"measurement": "Average DSM-IV Score (mean of 14 scored items, 0-3 each)", "setting": "[3]; Before treatment (baseline)", "result": 2.0677}, {"measurement": "Scaled DSM-IV symptom summary scores after steroid treatment", "setting": "[3]; p≦0.00001", "result": "highly significant improvement"}, {"measurement": "Expressive Language change Time 1 to Time 2: number of subjects Better", "setting": "[4]; STAR group n = 20", "result": 17}, {"measurement": "Expressive Language change Time 1 to Time 2: number of subjects NoDiff", "setting": "[4]; STAR group n = 20", "result": 2}, {"measurement": "Expressive Language change Time 1 to Time 2: number of subjects Worse", "setting": "[4]; STAR group n = 20", "result": 1}, {"measurement": "Receptive Language change Time 1 to Time 2: number of subjects Better", "setting": "[4]; STAR group n = 20", "result": 17}, {"measurement": "Receptive Language change Time 1 to Time 2: number of subjects NoDiff", "setting": "[4]; STAR group n = 20", "result": 3}, {"measurement": "Receptive Language change Time 1 to Time 2: number of subjects Worse", "setting": "[4]; STAR group n = 20", "result": 0}, {"measurement": "Mean Diff. of CLSQ score, Time 1 to Time 2, Expressive language", "setting": "[4]; [6]", "result": 4.10}, {"measurement": "Mean Diff. of CLSQ score, Time 1 to Time 2, Receptive language", "setting": "[4]; [6]", "result": 4.80}, {"measurement": "STAR group subjects showing improvement in language ratings", "setting": "[4]; receptive and expressive, study 1 to study 2", "result": "17/20"}]}
